Experimental data reported in patent US4737510A, “Bioactive metabolites from the caribbean sponge agelas coniferin” (priority 1986, dated 1988).
Several values for one entry are separate records, joined by “and”; a condition that tells them apart may be missing. Equal entries are not always repeated. Where two headings read alike, the source gives them in different places.

What was measured:
[1] = tested on: Monkey Kidney Cells (CV-1); experiment: Cytotoxicity to monkey kidney cells (CV-1) determined by Dr. R. G. Hughes, Jr.; details: 8 or less essentially indicates noncytotoxicity
[2] = tested on: Bacillus subtilis; experiment: Disc diffusion antimicrobial assay, Bacillus subtilis; assay type: cell-based; details: for zone of inhibition at 10 µg/disc / zone of inhibition at 50 µg/disc / zone of inhibition at 100 µg/disc: Bacillus subtilis, 6.5 mm disc, read-out: diameter of the clear zone of inhibition; for zone of inhibition at 50 µg/disc: 50 μg/disk; for zone of inhibition at 100 µg/disc: 100 μg/disk
[3] = tested on: Herpes Simplex Virus type 1 (HSV-1); experiment: Antiviral activity against HSV-1 determined by Dr. R. G. Hughes, Jr.;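 note: grades: +++ strong ++ moderate + light ± questionable - negative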; assay type: cell-based
[4] = tested on: vesicular stomatitis virus (VSV); experiment: microbe, parasite or virus in culture; assay type: cell-based; details: Vesicular stomatitis virus, in Primates
[5] = tested on: Escherichia coli; experiment: Disc diffusion antimicrobial assay, Escherichia coli; assay type: cell-based; details: for activity against Escherichia coli / zone of inhibition at 10 µg/disc: 10 μg/disk; for zone of inhibition at 10 µg/disc / zone of inhibition at 50 µg/disc / zone of inhibition at 100 µg/disc: Escherichia coli, 6.5 mm disc, read-out: diameter of the clear zone of inhibition; for zone of inhibition at 50 µg/disc: 50 μg/disk; for zone of inhibition at 100 µg/disc: 100 μg/disk
[6] = tested on: E. coli strain BR339; assay type: cell-based
[7] = tested on: Herpes simplex virus, type I (HSV-1); experiment: microbe, parasite or virus in culture; assay type: cell-based; details: Human alphaherpesvirus 1, in Primates
[8] = tested on: Balanus amphitrite amphitrite; experiment: Barnacle settlement assay, inhibition; assay type: in vivo, Balanus amphitrite amphitrite (barnacle); details: Amphibalanus amphitrite
[9] = read-out: antiviral activity, VSV, ++ scale
[10] = read-out: antiviral activity, VSV, zone diameter
[11] = read-out: antiviral activity, HSV-1, ++ scale
[12] = read-out: antiviral activity, HSV-1, zone diameter

SMILES	cytotoxicity, zone diameter ([1]; 25 μg/disk) [mm]	cytotoxicity, zone diameter ([1]; 50 μg/disk) [mm]	cytotoxicity, zone diameter ([1]; 100 μg/disk) [mm]	zone of inhibition at 10 µg/disc ([2]; 10 μg/disk) [mm]	zone of inhibition at 50 µg/disc [2] [mm]	zone of inhibition at 100 µg/disc [2] [mm]	HSV-1 activity ([3]; 25 μg/disk)	HSV-1 activity ([3]; 50 μg/disk)	HSV-1 activity ([3]; 100 μg/disk)	zone of inhibition at 20 µg/disc [4, 9] [mm]	zone of inhibition at 100 µg/disc [4, 9] [mm]	zone of inhibition at 200 µg/disc [4, 9] [mm]	zone of inhibition at 20 µg/disc [4, 10] [mm]	zone of inhibition at 100 µg/disc [4, 10] [mm]	zone of inhibition at 200 µg/disc [4, 10] [mm]	zone of inhibition at 10 µg/disc [5] [mm]	zone of inhibition at 50 µg/disc [5] [mm]	zone of inhibition at 100 µg/disc [5] [mm]	zone of inhibition at 20 µg/disc [7, 11] [mm]	zone of inhibition at 50 µg/disc [7, 11] [mm]	further results
Nc1ncc(C2c3nc(N)[nH]c3CC(CNC(=O)c3cc(Br)c(Br)[nH]3)C2CNC(=O)c2cc(Br)c[nH]2)[nH]1 (centres unmarked) [Compound 5a, Bromoageliferin Acetate]	5	5	7	10	12	12	-	±	++	< 7	8 to 10	8 to 10	0	10	10	7	8	8	8 to 10	11 to 15	zone of inhibition at 50 µg/disc [4, 9]: < 7 mm; zone of inhibition at 50 µg/disc [4, 10]: 0 mm; activity against Escherichia coli [5]: active; BIA activity, numerical color intensity scale 0-10 [6]: 3 and 2; zone of inhibition at 100 µg/disc [7, 11]: 11 to 15 mm; zone of inhibition at 200 µg/disc [7, 11]: 11 to 15 mm; zone of inhibition at 20 µg/disc [7, 12]: 9 mm; zone of inhibition at 50 µg/disc [7, 12]: 11 mm; zone of inhibition at 100 µg/disc [7, 12]: 11 mm; zone of inhibition at 200 µg/disc [7, 12]: 13 mm
Nc1ncc([C@@H]2[C@@H](CNC(=O)c3ccc[nH]3)[C@H](CNC(=O)c3cc(Br)c[nH]3)[C@H]2c2cnc(N)[nH]2)[nH]1 (relative stereo) [Compound 1a, Debromosceptrin Acetate]	5	5	5	7	11	12	±	±	±	< 7	7	8 to 10	0	7	8	0	8	11	11 to 15	11 to 15	growth inhibition of Bacillus subtilis ([2]; 10 μg/disk): most active; zone of inhibition at 50 µg/disc [4, 9]: < 7 mm; zone of inhibition at 50 µg/disc [4, 10]: 0 mm; BIA activity [6]: inducers; BIA activity, numerical color intensity scale 0-10 [6]: 10 and 7 and 6; zone of inhibition at 100 µg/disc [7, 11]: 11 to 15 mm; zone of inhibition at 200 µg/disc [7, 11]: > 16 mm; zone of inhibition at 20 µg/disc [7, 12]: 11 mm; zone of inhibition at 50 µg/disc [7, 12]: 12 mm; zone of inhibition at 100 µg/disc [7, 12]: 15 mm; zone of inhibition at 200 µg/disc [7, 12]: 18 mm
Nc1ncc(C2c3nc(N)[nH]c3CC(CNC(=O)c3cc(Br)c[nH]3)C2CNC(=O)c2cc(Br)c[nH]2)[nH]1 (centres unmarked) [Compound 4a, Ageliferin Acetate]	5	5	8	10	15	16	-	+	++	< 7	8 to 10	11 to 15	0	10	12	7	9	9	8 to 10	11 to 15	EC50 [8]: 21 µg/mL; zone of inhibition at 50 µg/disc [4, 9]: 8 to 10 mm; zone of inhibition at 50 µg/disc [4, 10]: 8 mm; activity against Escherichia coli [5]: active; zone of inhibition at 100 µg/disc [7, 11]: 11 to 15 mm; zone of inhibition at 200 µg/disc [7, 11]: > 16 mm; zone of inhibition at 20 µg/disc [7, 12]: 10 mm; zone of inhibition at 50 µg/disc [7, 12]: 13 mm; zone of inhibition at 100 µg/disc [7, 12]: 14 mm; zone of inhibition at 200 µg/disc [7, 12]: 17 mm
Nc1ncc([C@@H]2[C@@H](CNC(=O)c3cc(Br)c(Br)[nH]3)[C@H](CNC(=O)c3cc(Br)c(Br)[nH]3)[C@H]2c2cnc(N)[nH]2)[nH]1 (relative stereo) [Compound 3a, Dibromosceptrin Acetate]	5	5	7	0	10	10	-	++	+++	< 7	8 to 10	11 to 15	0	10	12	0	7	7	8 to 10	11 to 15	BIA activity [6]: somewhat less active; BIA activity, numerical color intensity scale 0-10 [6]: 3 and 2; zone of inhibition at 100 µg/disc [7, 11]: 11 to 15 mm; zone of inhibition at 200 µg/disc [7, 11]: 11 to 15 mm; zone of inhibition at 20 µg/disc [7, 12]: 9 mm; zone of inhibition at 50 µg/disc [7, 12]: 11 mm; zone of inhibition at 100 µg/disc [7, 12]: 12 mm; zone of inhibition at 200 µg/disc [7, 12]: 14 mm
